Reference: patent publication US20260327204A1, “DEGRADERS OF CYCLIN-DEPENDENT KINASE 12/13, COMPOSITIONS, AND USES THEREOF” (ZHEJIANG UNIVERSITY, priority 2023, published 2026)

How the values were obtained:
CDK13 = CDK13 (Homo sapiens, UniProt Q14004); assay: Western blot degradation of CDK13 (Example 2); type: cell-based; set-up: degradation of CDK12/13 protein in leukemia cells KASUMI-1, MV4-11, and Jurkat; endogenous in cells; conditions: DC50 classes, cell line not given; for DC50: read-out: CDK13 degradation Activity
Experimental: (§1) Western blot was used to determine the degradation of CDK12/13 protein in leukemia cells KASUMI-1, MV4-11, and Jurkat. The two compounds with the best degradation effects were further validated for their ability to degrade CDK12/13 protein in breast cancer cells MDA-MB-231 using a concentration gradient.
(§2) • Cell lines: KASUMI-1, MV4-11, Jurkat, or MDA-MB-231 • Culture medium: DMEM/RIPM-1640+10% Hyclone serum • Compound dissolution method: Compounds were dissolved in DMSO to prepare a 50 mM stock solution, and then diluted to the corresponding concentrations.
(§3) (1) In vitro cell culture: The selected cells were cultured in a 37 °C constant temperature incubator with 5% CO2. Once the cell density reached 70-90%, they were passaged for subsequent experiments.
(§4) (2) Cell seeding: Cells were digested, and the cell suspension was transferred to a 1.5 mL Eppendorf tube. After centrifugation at 1,000 rpm for 5 min, the cells were resuspended in 2 mL of culture medium and counted. The cell suspension was seeded in a 24-well plate at a density of 200,000 cells per well and allowed to adhere for 8-12 h.
(§5) (3) Compound treatment: The 50 mM compound stock solution was diluted with cell culture medium to a final concentration of 0.01 μM-3 μM. Cells were incubated in a 37 °C incubator with 5% CO2 for 3 h-48 h. The DMSO group served as the negative control.
(§6) At the end of the treatment time, the cells were collected and washed once with PBS. An appropriate volume of 4% SDS was added to lyse the cells, and the mixture was sonicated until no longer viscous. After centrifugation at 12,000 rpm at room temperature for 30 min, the supernatant was transferred to a new EP tube for protein quantification.
(§7) The exposure results were quantitatively analyzed using Image J software. First, the grayscale values of the bands were calculated using Image J. Then, the grayscale value of the target protein was divided by the grayscale value of the internal reference protein for normalization. The calculation formula is: […]
(§8) Where A is the grayscale value and D is the degradation rate.
(§9) In the figures, CDK12 and CDK13 are the target proteins under study, and β-Actin and GAPDH are the internal reference proteins. Internal reference proteins are used to indicate the total protein amount in each experimental group for quantitative analysis.

CDK12 = CDK12 (Homo sapiens, UniProt Q9NYV4); assay: Western blot degradation of CDK12 (Example 2); type: cell-based; set-up: degradation of CDK12/13 protein in leukemia cells KASUMI-1, MV4-11, and Jurkat; endogenous in cells; conditions: DC50 classes, cell line not given; for DC50: read-out: CDK12 degradation Activity
Experimental: as §1, §2, §3, §4, §5, §6, §7, §8, §9

CDK13, sequence (Q14004 whole entry): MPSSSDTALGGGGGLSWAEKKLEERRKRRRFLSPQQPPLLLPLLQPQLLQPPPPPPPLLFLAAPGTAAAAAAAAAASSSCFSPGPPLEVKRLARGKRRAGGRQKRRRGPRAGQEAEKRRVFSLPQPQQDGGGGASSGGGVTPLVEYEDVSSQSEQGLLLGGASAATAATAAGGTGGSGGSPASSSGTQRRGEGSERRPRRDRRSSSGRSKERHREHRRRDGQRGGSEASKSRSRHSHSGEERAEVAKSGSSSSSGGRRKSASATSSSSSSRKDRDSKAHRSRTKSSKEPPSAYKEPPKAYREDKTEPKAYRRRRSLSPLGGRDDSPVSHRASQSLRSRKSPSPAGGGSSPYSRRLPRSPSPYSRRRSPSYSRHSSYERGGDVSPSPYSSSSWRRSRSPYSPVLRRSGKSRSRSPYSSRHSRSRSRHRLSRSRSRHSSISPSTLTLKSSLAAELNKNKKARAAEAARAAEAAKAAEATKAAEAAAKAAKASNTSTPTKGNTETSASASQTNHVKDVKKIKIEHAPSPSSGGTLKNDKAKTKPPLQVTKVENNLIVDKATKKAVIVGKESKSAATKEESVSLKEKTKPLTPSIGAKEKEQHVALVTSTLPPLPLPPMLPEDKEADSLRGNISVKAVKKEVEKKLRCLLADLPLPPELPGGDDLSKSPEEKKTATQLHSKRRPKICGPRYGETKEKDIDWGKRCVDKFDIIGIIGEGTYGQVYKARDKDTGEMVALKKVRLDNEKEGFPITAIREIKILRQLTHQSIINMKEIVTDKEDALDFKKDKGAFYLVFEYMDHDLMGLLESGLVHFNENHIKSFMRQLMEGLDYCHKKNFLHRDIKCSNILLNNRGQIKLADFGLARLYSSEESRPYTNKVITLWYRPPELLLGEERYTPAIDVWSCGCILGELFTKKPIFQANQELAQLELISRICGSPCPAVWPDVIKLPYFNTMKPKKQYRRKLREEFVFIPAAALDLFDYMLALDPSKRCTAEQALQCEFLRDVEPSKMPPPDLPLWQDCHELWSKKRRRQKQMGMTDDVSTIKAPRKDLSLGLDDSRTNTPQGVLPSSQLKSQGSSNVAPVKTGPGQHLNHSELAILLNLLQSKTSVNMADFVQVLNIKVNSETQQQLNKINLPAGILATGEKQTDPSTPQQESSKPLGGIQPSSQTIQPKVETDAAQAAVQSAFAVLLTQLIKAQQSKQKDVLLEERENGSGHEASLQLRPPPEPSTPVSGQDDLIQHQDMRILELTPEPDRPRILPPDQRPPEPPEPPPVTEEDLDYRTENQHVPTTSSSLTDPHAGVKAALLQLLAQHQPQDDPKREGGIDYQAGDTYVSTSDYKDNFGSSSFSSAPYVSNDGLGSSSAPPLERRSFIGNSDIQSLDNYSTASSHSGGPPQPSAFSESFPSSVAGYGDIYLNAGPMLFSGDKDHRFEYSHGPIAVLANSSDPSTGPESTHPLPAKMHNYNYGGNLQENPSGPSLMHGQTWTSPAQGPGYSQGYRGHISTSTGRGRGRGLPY
CDK13, sequence (O75909 whole entry partner): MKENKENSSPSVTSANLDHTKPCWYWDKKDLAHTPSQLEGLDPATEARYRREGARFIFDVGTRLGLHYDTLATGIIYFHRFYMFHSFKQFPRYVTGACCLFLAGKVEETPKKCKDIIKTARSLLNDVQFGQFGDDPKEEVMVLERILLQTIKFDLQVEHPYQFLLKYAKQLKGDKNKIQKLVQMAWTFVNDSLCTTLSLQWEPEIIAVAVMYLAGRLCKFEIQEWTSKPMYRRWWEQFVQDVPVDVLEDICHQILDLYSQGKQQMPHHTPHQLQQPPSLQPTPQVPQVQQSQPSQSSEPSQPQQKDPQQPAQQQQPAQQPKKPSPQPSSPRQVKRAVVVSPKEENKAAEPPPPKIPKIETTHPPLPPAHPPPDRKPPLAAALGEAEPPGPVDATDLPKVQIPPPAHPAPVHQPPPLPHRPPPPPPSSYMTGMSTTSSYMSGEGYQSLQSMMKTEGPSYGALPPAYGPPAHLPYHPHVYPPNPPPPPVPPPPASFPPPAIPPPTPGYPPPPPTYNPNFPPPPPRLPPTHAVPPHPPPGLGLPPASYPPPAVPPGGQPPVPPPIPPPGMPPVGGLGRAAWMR
CDK12, sequence (Q9NYV4 whole entry): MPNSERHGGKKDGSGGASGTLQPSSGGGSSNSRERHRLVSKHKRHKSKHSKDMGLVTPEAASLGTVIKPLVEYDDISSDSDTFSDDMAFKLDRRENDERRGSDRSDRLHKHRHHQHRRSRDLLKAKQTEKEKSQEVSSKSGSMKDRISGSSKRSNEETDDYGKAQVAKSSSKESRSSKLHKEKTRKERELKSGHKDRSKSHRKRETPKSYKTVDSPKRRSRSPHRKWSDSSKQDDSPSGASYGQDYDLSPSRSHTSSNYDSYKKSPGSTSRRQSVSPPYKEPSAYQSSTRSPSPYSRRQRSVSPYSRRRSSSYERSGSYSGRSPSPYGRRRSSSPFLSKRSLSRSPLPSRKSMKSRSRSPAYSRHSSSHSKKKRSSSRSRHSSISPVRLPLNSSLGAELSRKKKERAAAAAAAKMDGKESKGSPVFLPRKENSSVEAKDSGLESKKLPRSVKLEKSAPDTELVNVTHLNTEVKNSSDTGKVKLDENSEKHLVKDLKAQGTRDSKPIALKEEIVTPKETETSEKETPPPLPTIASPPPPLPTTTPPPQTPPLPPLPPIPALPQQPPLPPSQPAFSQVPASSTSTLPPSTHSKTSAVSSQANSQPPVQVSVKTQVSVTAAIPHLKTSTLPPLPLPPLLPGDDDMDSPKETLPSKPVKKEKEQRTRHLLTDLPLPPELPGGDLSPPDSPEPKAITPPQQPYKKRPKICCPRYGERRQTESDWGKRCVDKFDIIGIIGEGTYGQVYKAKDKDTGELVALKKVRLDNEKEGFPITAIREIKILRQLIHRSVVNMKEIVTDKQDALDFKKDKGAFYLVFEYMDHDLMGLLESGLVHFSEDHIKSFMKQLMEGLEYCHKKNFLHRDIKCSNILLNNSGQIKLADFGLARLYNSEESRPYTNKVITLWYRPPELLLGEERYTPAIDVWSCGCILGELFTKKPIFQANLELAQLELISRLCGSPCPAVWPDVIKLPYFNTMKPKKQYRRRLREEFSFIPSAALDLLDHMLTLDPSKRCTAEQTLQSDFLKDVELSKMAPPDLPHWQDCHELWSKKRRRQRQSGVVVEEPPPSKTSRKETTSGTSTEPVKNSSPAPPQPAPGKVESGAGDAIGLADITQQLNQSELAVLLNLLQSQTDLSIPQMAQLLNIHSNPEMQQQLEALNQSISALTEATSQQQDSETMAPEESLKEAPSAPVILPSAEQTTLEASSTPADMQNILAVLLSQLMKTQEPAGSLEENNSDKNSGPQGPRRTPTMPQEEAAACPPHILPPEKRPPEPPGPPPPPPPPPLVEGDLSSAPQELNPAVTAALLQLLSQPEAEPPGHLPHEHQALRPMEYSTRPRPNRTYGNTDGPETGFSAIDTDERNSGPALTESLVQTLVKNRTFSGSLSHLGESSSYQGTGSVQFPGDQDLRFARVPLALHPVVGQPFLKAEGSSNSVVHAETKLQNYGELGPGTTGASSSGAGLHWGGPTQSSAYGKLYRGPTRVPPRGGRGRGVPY
CDK12, sequence (O75909 whole entry partner): as the sequence (O75909 whole entry partner) above

Compound	DC50 (CDK13) [nM]	DC50 (CDK12) [nM]	CDK13 degradation Activity (CDK13)	CDK12 degradation Activity (CDK12)
Cc1ncsc1-c1ccc([C@H](C)NC(=O)[C@@H]2C[C@@H](O)CN2C(=O)[C@@H](NC(=O)CN2CCN(c3ccc(-c4ccc(N(C(=O)NCc5ccccc5)[C@H]5CC[C@H](Nc6ccc(C#N)cn6)CC5)cc4)cn3)CC2)C(C)(C)C)cc1 (racemic) [Formula 73]	< 100	< 100		
Cc1ncsc1-c1ccc([C@H](C)NC(=O)[C@@H]2C[C@@H](O)CN2C(=O)[C@@H](NC(=O)CN2CCN(c3ncc(-c4ccc(N(C(=O)NCc5ccccc5)[C@H]5CC[C@H](Nc6ccc(C#N)cn6)CC5)cc4)cn3)CC2)C(C)(C)C)cc1 (racemic) [Formula 81]	< 100	< 100		
Cc1ncsc1-c1ccc([C@H](C)NC(=O)[C@@H]2C[C@@H](O)CN2C(=O)[C@@H](NC(=O)COCCOc2ccc(-c3ccc(N(C(=O)NCc4ccccc4)[C@H]4CC[C@H](Nc5ccc(C#N)cn5)CC4)cc3)cn2)C(C)(C)C)cc1 [Formula 1]	100 to 500	100 to 500		
Cc1ncsc1-c1ccc([C@H](C)NC(=O)[C@@H]2C[C@@H](O)CN2C(=O)[C@@H](NC(=O)COCCOCCOc2ccc(-c3ccc(N(C(=O)NCc4ccccc4)[C@H]4CC[C@H](Nc5ccc(C#N)cn5)CC4)cc3)cn2)C(C)(C)C)cc1 [Formula 2]	500 to 1000	1000 to 3000		
Cc1ncsc1-c1ccc([C@H](C)NC(=O)[C@@H]2C[C@@H](O)CN2C(=O)[C@@H](NC(=O)COCCOCCOCCOc2ccc(-c3ccc(N(C(=O)NCc4ccccc4)[C@H]4CC[C@H](Nc5ccc(C#N)cn5)CC4)cc3)cn2)C(C)(C)C)cc1 [Formula 3]	3000 to 10000	3000 to 10000		
Cc1ncsc1-c1ccc([C@H](C)NC(=O)[C@@H]2C[C@@H](O)CN2C(=O)[C@@H](NC(=O)COCCOCCOCCOCCOc2ccc(-c3ccc(N(C(=O)NCc4ccccc4)[C@H]4CC[C@H](Nc5ccc(C#N)cn5)CC4)cc3)cn2)C(C)(C)C)cc1 [Formula 4]	3000 to 10000	3000 to 10000		
Cc1ncsc1-c1ccc([C@H](C)NC(=O)[C@@H]2C[C@@H](O)CN2C(=O)[C@@H](NC(=O)COc2ccc(-c3ccc(N(C(=O)NCc4ccccc4)[C@H]4CC[C@H](Nc5ccc(C#N)cn5)CC4)cc3)cn2)C(C)(C)C)cc1 [Formula 6]	500 to 1000	1000 to 3000		
Cc1ncsc1-c1ccc([C@H](C)NC(=O)[C@@H]2C[C@@H](O)CN2C(=O)[C@@H](NC(=O)COCCN2CCN(c3ccc(N(C(=O)NCc4ccccc4)[C@H]4CC[C@H](Nc5ccc(C#N)cn5)CC4)cc3)CC2)C(C)(C)C)cc1 [Formula 7]	3000 to 10000	1000 to 3000		
Cc1ncsc1-c1ccc([C@H](C)NC(=O)[C@@H]2C[C@@H](O)CN2C(=O)[C@@H](NC(=O)COCCOCCN2CCN(c3ccc(N(C(=O)NCc4ccccc4)[C@H]4CC[C@H](Nc5ccc(C#N)cn5)CC4)cc3)CC2)C(C)(C)C)cc1 [Formula 8]	500 to 1000	500 to 1000		
Cc1ncsc1-c1ccc([C@H](C)NC(=O)[C@@H]2C[C@@H](O)CN2C(=O)[C@@H](NC(=O)COCCOCCOCCN2CCN(c3ccc(N(C(=O)NCc4ccccc4)[C@H]4CC[C@H](Nc5ccc(C#N)cn5)CC4)cc3)CC2)C(C)(C)C)cc1 [Formula 9]	3000 to 10000	3000 to 10000		
Cc1ncsc1-c1ccc([C@H](C)NC(=O)[C@@H]2C[C@@H](O)CN2C(=O)[C@@H](NC(=O)CN2CCN(c3ccc(N(C(=O)NCc4ccccc4)[C@H]4CC[C@H](Nc5ccc(C#N)cn5)CC4)cc3)CC2)C(C)(C)C)cc1 [Formula 10]	1000 to 3000	1000 to 3000		
Cc1ncsc1-c1ccc([C@H](C)NC(=O)[C@@H]2C[C@@H](O)CN2C(=O)[C@@H](NC(=O)CN2CCC(Oc3ccc(-c4ccc(N(C(=O)NCc5ccccc5)[C@H]5CC[C@H](Nc6ccc(C#N)cn6)CC5)cc4)cn3)CC2)C(C)(C)C)cc1 [Formula 11]	100 to 500	500 to 1000		
Cc1ncsc1-c1ccc([C@H](C)NC(=O)[C@@H]2C[C@@H](O)CN2C(=O)[C@@H](NC(=O)CN2CCC(COc3ccc(-c4ccc(N(C(=O)NCc5ccccc5)[C@H]5CC[C@H](Nc6ccc(C#N)cn6)CC5)cc4)cn3)CC2)C(C)(C)C)cc1 [Formula 12]	100 to 500	500 to 1000		
Cc1ncsc1-c1ccc([C@H](C)NC(=O)[C@@H]2C[C@@H](O)CN2C(=O)[C@@H](NC(=O)CC#CCCOc2ccc(-c3ccc(N(C(=O)NCc4ccccc4)[C@H]4CC[C@H](Nc5ccc(C#N)cn5)CC4)cc3)cn2)C(C)(C)C)cc1 [Formula 13]	3000 to 10000	3000 to 10000		
Cc1ncsc1-c1ccc([C@H](C)NC(=O)[C@@H]2C[C@@H](O)CN2C(=O)[C@@H](NC(=O)CN2CC(Oc3ccc(-c4ccc(N(C(=O)NCc5ccccc5)[C@H]5CC[C@H](Nc6ccc(C#N)cn6)CC5)cc4)cn3)C2)C(C)(C)C)cc1 [Formula 14]		3000 to 10000	−	
Cc1ncsc1-c1ccc([C@H](C)NC(=O)[C@@H]2C[C@@H](O)CN2C(=O)[C@@H](NC(=O)CC#Cc2ccc(-c3ccc(N(C(=O)NCc4ccccc4)[C@H]4CC[C@H](Nc5ccc(C#N)cn5)CC4)cc3)cn2)C(C)(C)C)cc1 [Formula 15]			−	−
Cc1ncsc1-c1ccc([C@H](C)NC(=O)[C@@H]2C[C@@H](O)CN2C(=O)[C@@H](NC(=O)CC#CCOc2ccc(-c3ccc(N(C(=O)NCc4ccccc4)[C@H]4CC[C@H](Nc5ccc(C#N)cn5)CC4)cc3)cn2)C(C)(C)C)cc1 [Formula 16]	3000 to 10000	3000 to 10000		
Cc1ncsc1-c1ccc([C@H](C)NC(=O)[C@@H]2C[C@@H](O)CN2C(=O)[C@@H](NC(=O)C2CCN(c3ccc(-c4ccc(N(C(=O)NCc5ccccc5)[C@H]5CC[C@H](Nc6ccc(C#N)cn6)CC5)cc4)cn3)CC2)C(C)(C)C)cc1 [Formula 17]	500 to 1000	1000 to 3000		
Cc1ncsc1-c1ccc([C@H](C)NC(=O)[C@@H]2C[C@@H](O)CN2C(=O)[C@@H](NC(=O)CC#CC2CCN(c3ccc(-c4ccc(N(C(=O)NCc5ccccc5)[C@H]5CC[C@H](Nc6ccc(C#N)cn6)CC5)cc4)cn3)CC2)C(C)(C)C)cc1 [Formula 19]			−	−
Cc1ncsc1-c1ccc([C@H](C)NC(=O)[C@@H]2C[C@@H](O)CN2C(=O)[C@@H](NC(=O)CC#CC2CCN(c3ccc(N(C(=O)NCc4ccccc4)[C@H]4CC[C@H](Nc5ccc(C#N)cn5)CC4)cc3)CC2)C(C)(C)C)cc1 [Formula 20]	3000 to 10000	3000 to 10000		
Cc1ncsc1-c1ccc([C@H](C)NC(=O)[C@@H]2C[C@@H](O)CN2C(=O)[C@@H](NC(=O)CN2CCN(c3ccc(-c4ccc(N(C(=O)NCc5ccccc5)[C@H]5CC[C@H](Nc6ccc(C#N)cn6)CC5)cc4)cn3)CC2)C(C)(C)C)cc1 [Formula 71]	< 100			
Cc1ncsc1-c1ccc([C@H](C)NC(=O)[C@@H]2C[C@@H](O)CN2C(=O)[C@@H](NC(=O)CN2CCN(c3ccc(-c4ccc(N(C(=O)NCc5ccccc5)[C@H]5CC[C@H](Nc6ccc(C#N)cn6)CC5)cc4)cn3)CC2)C(C)(C)C)cc1 [Formula 72]	< 100			
Cc1ncsc1-c1ccc([C@H](C)NC(=O)[C@@H]2C[C@@H](O)CN2C(=O)[C@@H](NC(=O)CN2CCN(c3ccc(-c4ccc(N(C(=O)NCc5ccccc5)[C@H]5CC[C@H](Nc6ccc(C#N)cn6)CC5)cc4)cn3)CC2)C(C)(C)C)cc1 [Formula 74]	< 100			
Cc1ncsc1-c1ccc([C@H](C)NC(=O)[C@@H]2C[C@@H](O)CN2C(=O)[C@@H](NC(=O)CN2CCN(c3ccc(-c4ccc(N(C(=O)NCc5ccccc5)[C@H]5CC[C@H](Nc6ccc(C#N)cn6)CC5)cc4)cn3)CC2)C(C)(C)C)cc1 [Formula 75]	< 100			
Cc1ncsc1-c1ccc([C@H](C)NC(=O)[C@@H]2C[C@@H](O)CN2C(=O)[C@@H](NC(=O)CN2CCN(c3ccc(-c4ccc(N(C(=O)NCc5ccccc5)[C@H]5CC[C@H](Nc6ccc(C#N)cn6)CC5)cc4)cn3)CC2)C(C)(C)C)cc1 [Formula 76]	< 100			
Cc1ncsc1-c1ccc([C@H](C)NC(=O)[C@@H]2C[C@@H](O)CN2C(=O)[C@@H](NC(=O)CN2CCN(c3ccc(-c4ccc(N(C(=O)NCc5ccccc5)[C@H]5CC[C@H](Nc6ccc(C#N)cn6)CC5)cc4)cn3)CC2)C(C)(C)C)cc1 [Formula 77]	< 100			
Cc1ncsc1-c1ccc([C@H](C)NC(=O)[C@@H]2C[C@@H](O)CN2C(=O)[C@@H](NC(=O)CN2CCN(c3ccc(-c4ccc(N(C(=O)NCc5ccccc5)[C@H]5CC[C@H](Nc6ccc(C#N)cn6)CC5)cc4)cn3)CC2)C(C)(C)C)cc1 [Formula 78]	< 100			
